Legend:
A549 = assay: Cytotoxicity against human A549 cells after 96 hrs by MTT assay; assay type: functional, cell-based; conditions: A549, 96 h
MDA-MB-231 = assay: Cytotoxicity against human MDA-MB-231 cells after 96 hrs by MTT assay; assay type: functional, cell-based; conditions: MDA-MB-231, 96 h
MOLT-4 = assay: Cytotoxicity against human MOLT4 cells after 96 hrs by MTT assay; assay type: functional, cell-based; conditions: MOLT-4, 96 h
K562 = assay: Cytotoxicity against human K562 cells after 96 hrs by MTT assay; assay type: functional, cell-based; conditions: K562, 96 h
PC-3 = assay: Cytotoxicity against human PC3 cells after 96 hrs by MTT assay; assay type: functional, cell-based; conditions: PC-3, 96 h
A549 (Homo sapiens) [1] = assay: Cell cycle arrest in human A549 cells assessed as accumulation at S phase at 10 umol/L after 24 hrs by FACS relative to untreated control
A549 (Homo sapiens) [2] = assay: Cell cycle arrest in human A549 cells assessed as accumulation at G2/M phase at 10 umol/L after 24 hrs by FACS relative to untreated control
A549 (Homo sapiens) [3] = assay: Cell cycle arrest in human A549 cells assessed as accumulation at G0/G1 phase at 10 umol/L after 24 hrs by FACS relative to untreated control

| SMILES | IC50 (A549) | IC50 (MDA-MB-231) | IC50 (MOLT-4) | IC50 (K562) | IC50 (PC-3) | percent of cells in S phase (A549 (Homo sapiens) [1]) | Percentage of cells in G2/M phase (A549 (Homo sapiens) [2]) | Activity (A549 (Homo sapiens) [3]) |
| --- | --- | --- | --- | --- | --- | --- | --- | --- |
| CCCc1nc2cc3c(Nc4ccc(OC)cc4)ncnc3cc2n1CCCOCC | 18.3 µM | > 100 µM | > 100 µM | > 100 µM | > 100 µM | – | – | – |
| CCOCCCn1c(CC(C)C)nc2cc3c(Nc4ccc(OC)cc4)ncnc3cc21 | 2.81 µM | > 100 µM | > 100 µM | 14.4 µM | > 100 µM | 15.41% | 3.12% | 81.47% |
| COCCCn1c(C(C)C)nc2cc3c(Nc4ccc(OC)cc4)ncnc3cc21 | 15.8 µM | > 100 µM | > 100 µM | > 100 µM | > 100 µM | – | – | – |
| CCOCCCn1c(C(C)C)nc2cc3c(Nc4ccc(OC)cc4)ncnc3cc21 | 4.59 µM | > 100 µM | > 100 µM | 5.18 µM | > 100 µM | 16.22% | 3.4% | 80.38% |
| COc1cc2ncnc(Nc3ccc(F)c(Cl)c3)c2cc1OCCCN1CCOCC1 [GEFITINIB] | – | – | – | – | – | 19.24% | 4.64% | 76.12% |
| COc1ccc(Nc2ncnc3cc4c(cc23)nc(C(C)C)n4C2CCCCC2)cc1 | 7.31 µM | 21.1 µM | 7.69 µM | 19.3 µM | 23 µM | – | – | – |
| CCOCCCn1c(CC)nc2cc3c(Nc4ccc(OC)cc4)ncnc3cc21 | 6.05 µM | > 100 µM | > 100 µM | > 100 µM | > 100 µM | – | – | – |
| COc1ccc(Nc2ncnc3cc4c(cc23)nc(C(C)C)n4C(C)C)cc1 | 6.26 µM | 35.7 µM | > 100 µM | > 100 µM | > 100 µM | – | – | – |
| CCCCCCc1nc2cc3c(Nc4ccc(OC)cc4)ncnc3cc2n1CCCOCC | 39 µM | > 100 µM | > 100 µM | 40.9 µM | > 100 µM | – | – | – |
| CCOCCCn1c(Cc2ccccc2)nc2cc3c(Nc4ccc(OC)cc4)ncnc3cc21 | 22.1 µM | 15.5 µM | > 100 µM | 12.9 µM | > 100 µM | – | – | – |
| CCCCn1c(C(C)C)nc2cc3c(Nc4ccc(OC)c(OC)c4)ncnc3cc21 | 5.58 µM | 20 µM | 6.63 µM | 18.5 µM | > 100 µM | – | – | – |
| CCCCn1c(C(C)C)nc2cc3c(Nc4ccc(OC)cc4)ncnc3cc21 | 8.29 µM | > 100 µM | 11.5 µM | > 100 µM | 18.9 µM | – | – | – |
| CCCCn1c(C(C)C)nc2cc3c(Nc4ccc(F)cc4)ncnc3cc21 | 4.25 µM | 20 µM | 11.4 µM | 5.55 µM | 9.74 µM | 10.73% | 2.99% | 86.28% |
| CCCCn1c(C(C)C)nc2cc3c(Nc4ccc(C)cc4)ncnc3cc21 | 12.1 µM | 10.7 µM | > 100 µM | > 100 µM | 24.8 µM | – | – | – |
| CC(C)c1nc2cc3c(Nc4ccccc4)ncnc3cc2n1C1CCCCC1 | 22.1 µM | > 100 µM | 2.83 µM | 17.4 µM | 24.7 µM | – | – | – |
| CCCc1nc2cc3c(Nc4ccc(OC)c(OC)c4)ncnc3cc2n1CCCOC | 11.5 µM | 20.6 µM | 10.9 µM | 14.3 µM | 24.6 µM | – | – | – |

Source: ChEMBL document CHEMBL1152829, “2,3-Disubstituted 8-arylamino-3H-imidazo[4,5-g]quinazolines: a novel class of antitumor agents” (Eur J Med Chem, 2009)
